One assay concerns Escherichia coli (Juhl). Description: Acute mouse protection test. The class given is in vivo, Escherichia coli; female, swiss albino mice. The following applies: ip, 168 h, read-out: Effective Dose50 (ED50). The method, then: (§1) The acute mouse protection test is conducted on 10 mice with each of 5 levels of dug. Mouse mortality is used to calculate a ED50 value, i.e., dose of drug required to protect 50% of the test animals.
(§2) The acute mouse protection test is conducted on female, swiss albino mice, 18-20 grams in weight. The mice are injected intraperitoneally with an 18 hour culture of the indicated test organism diluted sufficiently to provide the desired LD50 value. To check potency of the infection a titration of the indicated test organism is carried out in control animals. The treatment group of animals is dosed with the test fortimicin at one and five hours post-infection and observed for seven days. The ED50 values are calculated using the mortality data collected.

A further assay deals with E. coli BL 3676 (Res). Description: In vitro antibiotic activity, two-fold dilution test (Mueller-Hinton agar). It is filed as cell-based. To be noted: for MIC: Escherichia coli, read-out: Minimum inhibitory concentration (MIC). The method, then:
(§3) The in vitro antibiotic activities are determined by a two-fold dilution test using Mueller-Hinton agar, 10 ml per Petri plate. The inoculum of approximately 1×10^5 of the indicated test organism is delivered by the Steer's replicator. The test is incubated at 37° C. for 24 hours. Fortimicin A tetrahydrochloride and fortimicin A disulfate are used as the control antibiotics. The minimum inhibitory concentrations (MIC), listed in Table I, are expressed in mcg/ml.

For the next assay, the system named is Proteus vulgaris JJ. The description is as above. The class given is cell-based. To be noted: for MIC: read-out: Minimum inhibitory concentration (MIC). The method, then: as §3
The test system of assay [1] is Pseudo. aeruginosa KY 8512. The description is as above. The following applies: for MIC: Pseudomonas aeruginosa. It is filed as cell-based. Here is the method: as §3
Another assay relates to Kleb. pneumoniae KY 4262. Described as above. To be noted: for MIC: Klebsiella pneumoniae. The class given is cell-based. Here is the method: as §3
For assay [2], the system named is Enterobacter aerogenes 13048. Described as above. It is filed as cell-based. To be noted: for MIC: read-out: Minimum inhibitory concentration (MIC). The method, then:
as §3

The subject of another assay is Strep. faecalis 10541. The assay is described as above. It is filed as cell-based. The following applies: for MIC: read-out: Minimum inhibitory concentration (MIC). The method, then: as §3
Another assay relates to Psuedo. aeruginosa 209. The assay is described as above. It is filed as cell-based. To be noted: for MIC: read-out: Minimum inhibitory concentration (MIC). Here is the method:
as §3

For assay [3], the system named is Pseudo. aeruginosa KY 8516. The assay is described as above. It is filed as cell-based. The following applies: for MIC: Pseudomonas aeruginosa. Here is the method:
as §3

The subject of a further assay is E. coli 76-2. The description is as above. The class given is cell-based. Here is the method:
as §3

A further assay deals with Psuedo. aeruginosa 27853. The description is as above. It is filed as cell-based. Here is the method:
as §3

The subject of assay [4] is Proteus mirabilis Fin. #9. The description is as above. The class given is cell-based. The following applies: for MIC: read-out: Minimum inhibitory concentration (MIC). The method, then:
as §3

A further assay deals with Kleb. pneumoniae 10031. Described as above. It is filed as cell-based. The method, then: as §3
In another assay the test system is E. coli Juhl. The assay is described as above. It is filed as cell-based. To be noted: for MIC: Escherichia coli, read-out: Minimum inhibitory concentration (MIC). The method, then: as §3
Another assay relates to Sal. typhimurium Ed. #9. Described as above. It is filed as cell-based. The following applies: for MIC: Salmonella enterica, read-out: Minimum inhibitory concentration (MIC). Here is the method: as §3
The subject of another assay is Staph. aureus Smith. The assay is described as above. To be noted: for MIC: Staphylococcus aureus, read-out: Minimum inhibitory concentration (MIC). The class given is cell-based. Here is the method: as §3
For another assay, the system named is Proteus rettigeri U6333. Described as above. The class given is cell-based. The method, then:
as §3

A further assay relates to Shigella sonnei 9290. The assay is described as above. It is filed as cell-based. The following applies: 37° C.; for Minimum inhibitory concentration (MIC): 24 hours. Here is the method:
as §3

Assay [5] relates to Pseudo. aeruginosa BMH #10. Described as above. The class given is cell-based. The following applies: for MIC: Pseudomonas aeruginosa, read-out: Minimum inhibitory concentration (MIC). The method, then: as §3
For the next assay, the system named is Providencia 1577. The description is as above. It is filed as cell-based. To be noted: for MIC: read-out: Minimum inhibitory concentration (MIC). Here is the method: as §3
For another assay, the system named is Serratis marcescens 4003. Described as above. It is filed as cell-based. Here is the method:
as §3

Assay [6] relates to Klebsiella pneumoniae (4508). Description: Acute mouse protection test. The class given is in vivo, Klebsiella pneumoniae; female, swiss albino mice. The following applies: ip, 168 h, read-out: Effective Dose50 (ED50). Here is the method:
as §1, §2

Assay [7] deals with Proteus mirabilis (Fin 9). Kind of assay: Acute mouse protection test. The class given is in vivo, Proteus mirabilis; female, swiss albino mice. The following applies: ip, 168 h, read-out: Effective Dose50 (ED50). Here is the method: as §1, §2
The mark [8] stands for this setting: E. coli BL 3676 (Res), Mueller-Hinton agar, 37° C., 24 hours.
The mark [9] stands for this setting: Proteus vulgaris JJ, Mueller-Hinton agar, 37° C., 24 hours.
Where [10] appears, read: Psuedo. aeruginosa 209, Mueller-Hinton agar, 37° C., 24 hours.
Where [11] appears, read: Proteus mirabilis Fin. #9, Mueller-Hinton agar, 37° C., 24 hours.
Where [12] appears, read: E. coli Juhl, Mueller-Hinton agar, 37° C., 24 hours.
Setting [13] is: Sal. typhimurium Ed. #9, Mueller-Hinton agar, 37° C., 24 hours.
[14] abbreviates: Staph. aureus Smith, Mueller-Hinton agar, 37° C., 24 hours.
Setting [15] is: Pseudo. aeruginosa BMH #10, Mueller-Hinton agar, 37° C., 24 hours.
The mark [16] stands for this setting: Providencia 1577, Mueller-Hinton agar, 37° C., 24 hours.

Each structure is given as a SMILES string. Structures can show the parent of a compound that is named as a salt. Where two headings read alike, the source gives them in different places.

Broadly, the ED50 is the midpoint of the dose-response relation. As to `COC1CC(N)C(OC2OC(C(C)N)CCC2N)C(O)C1N(C)C(=O)CN` (stereo not drawn) [2-deoxyfortimicin A tetrahydrochloride, 2-Deoxyfortimicin A Tetrahydrochloride], the ED50 with Escherichia coli (Juhl) (Escherichia coli (Juhl) infected intraperitoneally, dosed one and five hours post-infection, observed seven days) is 4.7 mg/kg; in assay [6] (Klebsiella pneumoniae (4508) infected intraperitoneally, dosed one and five hours post-infection, observed seven days) it was 1.5 mg/kg; in assay [7] (Proteus mirabilis (Fin 9) infected intraperitoneally, dosed one and five hours post-infection, observed seven days), 4.7 mg/kg. Moreover, the MIC in the assay with E. coli BL 3676 (Res) (setting [8]) came out at 25 µg/mL; in the assay on Proteus vulgaris JJ (setting [9]), 3.1 µg/mL; in [1] (KY8512, Pseudo. aeruginosa KY 8512, 37° C., 24 hours, read-out: Minimum inhibitory concentration (MIC)) it was 12.5 µg/mL; in the assay with Kleb. pneumoniae KY 4262 (KY4262, Kleb. pneumoniae KY 4262, 37° C., 24 hours, read-out: Minimum inhibitory concentration (MIC)), 6.2 µg/mL; in assay [2] (Klebsiella aerogenes, Enterobacter aerogenes 13048, Mueller-Hinton agar, 37° C., 24 hours) it was 3.1 µg/mL; with Strep. faecalis 10541 (Enterococcus faecalis, Strep. faecalis 10541, Mueller-Hinton agar, 37° C., 24 hours) it was 50 µg/mL. The MIC is more than 100 µg/mL with Psuedo. aeruginosa 209 (setting [10]); 50 µg/mL in assay [3] (KY8516, Pseudo. aeruginosa KY 8516, 37° C., 24 hours, read-out: Minimum inhibitory concentration (MIC)); 3.1 µg/mL with E. coli 76-2 (Escherichia coli, 762, E. coli 76-2, 37° C., 24 hours, read-out: Minimum inhibitory concentration (MIC)); 12.5 µg/mL with Psuedo. aeruginosa 27853 (Psuedo. aeruginosa 27853, 37° C., 24 hours, read-out: Minimum inhibitory concentration (MIC)); 6.2 µg/mL in assay [4] (setting [11]); 1.56 µg/mL in the assay on Kleb. pneumoniae 10031 (Klebsiella pneumoniae, Kleb. pneumoniae 10031, 37° C., 24 hours, read-out: Minimum inhibitory concentration (MIC)). In addition, the MIC in the assay with E. coli Juhl (setting [12]) was 6.2 µg/mL; in the assay on Sal. typhimurium Ed. #9 (setting [13]) it was 1.56 µg/mL; with Staph. aureus Smith (setting [14]), 0.78 µg/mL; in the assay on Proteus rettigeri U6333 (Proteus rettigeri U6333, 37° C., 24 hours, read-out: Minimum inhibitory concentration (MIC)), 25 µg/mL; with Shigella sonnei 9290 (Shigella sonnei, 9290, 24 h, read-out: Minimum inhibitory concentration (MIC)), 6.2 µg/mL; in assay [5] (setting [15]), 0.78 µg/mL. The MIC in the assay on Providencia 1577 (setting [16]) is 3.1 µg/mL; in the assay with Serratis marcescens 4003 (Serratis marcescens 4003, 37° C., 24 hours, read-out: Minimum inhibitory concentration (MIC)) it was 3.1 µg/mL.
Regarding `COC1C(O)C(N)C(OC2OC(C(C)N)CCC2N)C(O)C1N(C)C(=O)CN` (stereo not drawn) [Fortimicin A disulfate, fortimicin A disulfate], the ED50 with Escherichia coli (Juhl) (Escherichia coli) was found to be 4.6 mg/kg; in assay [6] (Klebsiella pneumoniae) it was 2.5 mg/kg; in [7] (Proteus mirabilis) it was 7.5 mg/kg. Also, the MIC is 25 µg/mL in the assay on E. coli BL 3676 (Res) (24 h); 6.2 µg/mL in the assay with Proteus vulgaris JJ (Proteus vulgaris, 24 h); 12.5 µg/mL in assay [1] (KY8512, 24 h, read-out: Minimum inhibitory concentration (MIC), Pseudo. aeruginosa KY 8512, 37° C.); 6.2 µg/mL in the assay with Kleb. pneumoniae KY 4262 (KY4262, 24 h, read-out: Minimum inhibitory concentration (MIC), Kleb. pneumoniae KY 4262, 37° C.); 3.1 µg/mL in assay [2] (Klebsiella aerogenes, 13048, 24 h); 50 µg/mL with Strep. faecalis 10541 (Enterococcus faecalis, 10541, 24 h). Moreover, the MIC with Psuedo. aeruginosa 209 (24 h) was more than 100 µg/mL; in assay [3] (KY8516, 24 h, read-out: Minimum inhibitory concentration (MIC), Pseudo. aeruginosa KY 8516, 37° C.), 50 µg/mL; in the assay on E. coli 76-2 (Escherichia coli, 762, 24 h, read-out: Minimum inhibitory concentration (MIC), E. coli 76-2, 37° C.) it was 6.2 µg/mL; with Psuedo. aeruginosa 27853 (24 h, read-out: Minimum inhibitory concentration (MIC), Psuedo. aeruginosa 27853, 37° C.), 12.5 µg/mL; in [4] (Proteus mirabilis, 24 h), 6.2 µg/mL; in the assay with Kleb. pneumoniae 10031 (Klebsiella pneumoniae, 10031, 24 h, read-out: Minimum inhibitory concentration (MIC), Kleb. pneumoniae 10031, 37° C.), 3.1 µg/mL. Also, the MIC with E. coli Juhl (24 h) turned out to be 6.2 µg/mL; with Sal. typhimurium Ed. #9 (TYPHIMURIUM, 24 h) it was 1.56 µg/mL; in the assay on Staph. aureus Smith (24 h), 0.78 µg/mL; in the assay on Proteus rettigeri U6333 (24 h, read-out: Minimum inhibitory concentration (MIC), Proteus rettigeri U6333, 37° C.), 12.5 µg/mL; in assay [5] (24 h), 0.78 µg/mL; in the assay with Providencia 1577 (Providencia, 1577, 24 h) it was 3.1 µg/mL. In addition, the MIC with Serratis marcescens 4003 (24 h, read-out: Minimum inhibitory concentration (MIC), Serratis marcescens 4003, 37° C.) amounted to 1.56 µg/mL. In addition, the “Minimum inhibitory concentration (MIC)” value with Shigella sonnei 9290 was determined as 6.2 µg/mL.
As to `COC1C(O)C(N)C(OC2OC(C(C)N)CCC2N)C(O)C1N(C)C(=O)CN` (stereo not drawn) [Fortimicin A tetrahydrochloride], the “Minimum inhibitory concentration (MIC)” value in the assay with E. coli BL 3676 (Res) (setting [8]) amounted to 25 µg/mL; with Proteus vulgaris JJ (setting [9]) it was 6.2 µg/mL; in [1] (Pseudo. aeruginosa KY 8512, 37° C., 24 hours) it was 25 µg/mL; in the assay on Kleb. pneumoniae KY 4262 (Kleb. pneumoniae KY 4262, 37° C., 24 hours) it was 3.1 µg/mL; in [2] (Enterobacter aerogenes 13048, Mueller-Hinton agar, 37° C., 24 hours) it was 3.1 µg/mL; in the assay on Strep. faecalis 10541 (Strep. faecalis 10541, Mueller-Hinton agar, 37° C., 24 hours), 50 µg/mL. In addition, the “Minimum inhibitory concentration (MIC)” value was more than 100 µg/mL in the assay with Psuedo. aeruginosa 209 (setting [10]); 100 µg/mL in [3] (Pseudo. aeruginosa KY 8516, 37° C., 24 hours); 3.1 µg/mL in the assay with E. coli 76-2 (E. coli 76-2, 37° C., 24 hours); 25 µg/mL in the assay on Psuedo. aeruginosa 27853 (Psuedo. aeruginosa 27853, 37° C., 24 hours); 6.2 µg/mL in assay [4] (setting [11]); 1.56 µg/mL in the assay on Kleb. pneumoniae 10031 (Kleb. pneumoniae 10031, 37° C., 24 hours). The “Minimum inhibitory concentration (MIC)” value in the assay on E. coli Juhl (setting [12]) worked out at 6.2 µg/mL; with Sal. typhimurium Ed. #9 (setting [13]) it was 1.56 µg/mL; in the assay on Staph. aureus Smith (setting [14]), 0.78 µg/mL; in the assay with Proteus rettigeri U6333 (Proteus rettigeri U6333, 37° C., 24 hours) it was 25 µg/mL; in the assay with Shigella sonnei 9290, 12.5 µg/mL; in assay [5] (setting [15]) it was 0.78 µg/mL. In addition, the “Minimum inhibitory concentration (MIC)” value in the assay on Providencia 1577 (setting [16]) stood at 3.1 µg/mL; in the assay on Serratis marcescens 4003 (Serratis marcescens 4003, 37° C., 24 hours), 3.1 µg/mL.
